The values below come from US20150315218A1, “SALTS OF PRODRUGS OF PIPERAZINE AND SUBSTITUTED PIPERIDINE ANTIVIRAL AGENTS” (Bristol-Myers Squibb Company, priority 2004, published 2015).

“Also recorded” adds a separate entry of the source. Counter-ions that a name gives are not always drawn. Like-named read-outs stand apart in the source and are kept apart here.

The nature of data set [1]: Single-dose oral toxicokinetic study of prodrugs in rats. In kind it is in vivo, rat. The conditions noted are these: for C24 h: male rats, mean; for Cmax / AUC / half-life: male, Sprague Dawley, rat, plasma, po; for AUC: read-out: AUC from zero to last time point; for half-life: read-out: T1/2 (converted). On the procedure:
A 1-day oral toxicokinetic study in rats was conducted using the prodrug Iab (monolysine salt). Iab was administered at dosages of 16, 72, and 267 mg/kg (free acid) by oral gavage to three male rats/group using water as the vehicle (solution formulation). The dosages of prodrug free acid correspond to IVa (parent) molar equivalent dosages of 13, 57, and 211 mg/kg, respectively. The endpoint evaluated was plasma toxicokinetics of Iab and IVa in the individual rats.
A 1-day oral toxicokinetic study in rats was conducted by using the prodrug Ibb (monolysine salt). Ibb was administered at dosages of 19, 64, and 236 mg/kg (free acid) by oral gavage to three male rats/group using water as the vehicle (solution formulation).
A 1-day oral toxicokinetic study in rats was conducted using the prodrug Icb (disodium salt). Icb was administered at dosages of 5, 25, and 200 mg/kg (free acid) by oral gavage to three male rats/group using water as the vehicle (solution formulation).

Data set [2] in a line: Single-dose toxicokinetic and tolerability study of prodrugs in dogs. The conditions noted are these: dogs, oral prodrug. In kind it is in vivo, dog. On the procedure:
A multi-phase study was conducted to evaluate the tolerability of the prodrug, Iab (monolysine salt) at dosages of 24, 90, or 240 mg/kg (free acid, molar equivalent to 19, 71, or 190 mg/kg of parent IVa, respectively) and the toxicokinetics of lab and IVa (4). Iab was administered to two female dogs/group once daily either as an aqueous solution (24 or 90 mg/kg) or dry-filled capsules (24, 90 [once and twice daily] or 240 mg/kg). The endpoints were: clinical signs, body weight, food consumption, and plasma toxicokinetics of lab and IVa. In all cases, a 1-week washout period was used between doses for all phases of the study. […]
On day 1, Icb was administered to one dog/sex/group once daily in dry-filled capsules at the above dosages. A 1-week washout period was used between doses in the study. On day 8, Icb was administered to one dog/sex/group once daily as an aqueous solution at 25 mg/kg or twice daily in dry-filled capsules at 46 or 125 mg/kg BID.

Data set [3] is described as follows: IV and PO pharmacokinetic studies of prodrug salts (Iab, Ibb, Icb) in the monkey, with historical parent data. Conditions: monkey. Format: in vivo, cynomolgus monkeys. The protocol: The IV and PO studies of Iab were conducted in a crossover fashion in three male cynomolgus monkeys (11±1.2 kg, Charles River Biomedical Research Foundation, Houston, Tex.). There was a two-week washout period between the IV and PO studies.
In the IV study, Iab was infused via the femoral vein at 1.3 mg/kg (free acid, or 1.1 mg/kg of IVa equivalent) over 5 min at a constant rate of 0.1 mL/kg/min. The concentration of the dosing solution was 2.6 mg/mL, and the dosing volume was 0.5 mL/kg. Serial blood samples were collected from the femoral artery before dosing and at 5, 10, 15, 30, 45 min, 1, 2, 4, 6, 8 and 24 hr after dosing.
In the PO study, the monkeys were fasted overnight before dosing. Iab was administered by oral gavage at 7.1 mg/kg (free acid, or 5.6 mg/kg of IVa equivalent). The concentration of the dosing solution was 14.2 mg/mL, and the dosing volume was 0.5 mL/kg. Serial blood samples were collected before dosing and at 15, 30, 45 min, 1, 2, 4, 6, 8 and 24 hr after dosing.
The IV and PO studies of Ibb were conducted in a crossover fashion in three male cynomolgus monkeys (9.9±2.4 kg, Charles River Biomedical Research Foundation, Houston, Tex.). There was a two-week washout period between the IV and PO studies.
The concentration of the dosing solution was 2.7 mg/mL, and the dosing volume was 0.5 mL/kg. Serial blood samples were collected from the femoral artery before dosing and at 5, 10, 15, 30, 45 min, 1, 2, 4, 6, 8 and 24 hr after dosing.
In the PO study, the monkeys were fasted overnight before dosing. […] The concentration of the dosing solution was 5.8 mg/mL, and the dosing volume was 1 mL/kg. Serial blood samples were collected before dosing and at 15, 30, 45 min, 1, 2, 4, 6, 8 and 24 hr after dosing.
The IV and PO studies of Icb were conducted in a crossover fashion in three male cynomolgus monkeys (10±1.6 kg, Charles River Biomedical Research Foundation, Houston, Tex.). There was a two-week washout period between the IV and PO studies.
The concentration of the dosing solution was 2.8 mg/mL, and the dosing volume was 0.5 mL/kg. Serial blood samples were collected from the femoral artery before dosing and at 5, 10, 15, 30, 45 min, 1, 2, 4, 6, 8 and 24 hr after dosing.
In the PO study, the monkeys were fasted overnight before dosing. […] The concentration of the dosing solution was 9.8 mg/mL, and the dosing volume was 0.5 mL/kg. Serial blood samples were collected before dosing and at 15, 30, 45 min, 1, 2, 4, 6, 8 and 24 hr after dosing.

For `O=C(C(=O)N1CCN(C(=O)c2ccccc2)CC1)c1cn(COP(=O)(O)O)c2c(-n3ccnn3)ncc(F)c12` [Ibb, [3-[(4-benzoylpiperazin-1-yl)(oxo)acetyl]-4-fluoro-7-(1H-1,2,3-triazol-1-yl)-1H-pyrrolo[2,3-c]pyridin-1-yl]methyl dihydrogen phosphate, L-lysine salt (1:1)], the C24 h result in data set [1] (single oral dose Ibb 19 mg/kg (IVb molar equiv. 15 mg/kg)), in data set [1] (single oral dose Ibb 64 mg/kg (IVb molar equiv. 51 mg/kg)) and in data set [1] (single oral dose Ibb 236 mg/kg (IVb molar equiv. 190 mg/kg)) was “<LLQ” in each case. Further, the Cmax is 27 nM in data set [1] (19 mg/kg), 140 nM in data set [1] (64 mg/kg) and 250 nM in data set [1] (236 mg/kg). The values for the AUC in data set [1] (19 mg/kg), in data set [1] (64 mg/kg) and in data set [1] (236 mg/kg) were 0.03 µM·h, 0.18 µM·h and 0.49 µM·h, respectively. Moreover, the half-life was 1.3 h in data set [1] (19 mg/kg); 4.6 h in data set [1] (64 mg/kg); 3.6 h in data set [1] (236 mg/kg); 0.1 h in data set [3] (male, cynomolgus monkey, plasma, after IV prodrug, analyte = label, read-out: t1/2 (hr), IV (converted)). Moreover, the “clinical signs, body weight and food consumption” value in data set [2] is “Other than emesis, there were no clinical signs observed, and there were no effects on body weight and food consumption”. Also, the emesis result in data set [2] is “emesis (white, streaked with red that contained capsule remnants) was observed at about 0.5-1.25 hours after dosing in all dogs given ≧92 mg/kg QD; also recorded: emesis (white or brown) was observed within 2 hours after dosing in all dogs given ≧46 mg/kg BID”. Further, in data set [3] (male, cynomolgus monkey, plasma, prodrug after IV administration, read-out: CLtot (mL/min/kg), IV), the clearance is 28 mL/min/kg. Moreover, the Vd in data set [3] (male, cynomolgus monkey, plasma, prodrug after IV administration, read-out: Vdss (L/kg), IV) stood at 0.15 L/kg. In data set [3] (LLQ = 5 nM), the “prodrug detected in plasma after oral administration” value is given as “not detected”.
